Results on 1 molecule are retold here after ChEMBL document CHEMBL5518237, “Design of Novel 2-Phenylquinazolin-4-amines as Selective CYP1B1 Inhibitors for Overcoming Paclitaxel Resistance in A549 Cells” (J Med Chem, 2024).

Data set [1] is described as follows: Drug metabolism in Kunming mouse assessed as deiodination treated with radiolabeled compound at 0.37 MBq, iv measured after 120 mins by gamma-counting analysis. It is filed as ADME, organism-based. The settings on record: in vivo, 2 h.
Data set [2] is described as follows: Drug uptake in human HCT-116 cells using radiolabeled compound at 0.037 MBq incubated for 240 mins by gamma-counting analysis. It is filed as ADME, cell-based. The settings on record: hct-116, 4 h.
The nature of data set [3]: Drug uptake in liver of mouse xenografted with human HCT-116 cells assessed as radioactive accumulation treated with radiolabeled compound at 0.37 MBq, iv measured after 240 mins by gamma-counting analysis. The data set is classed as ADME, organism-based. The settings on record: in vivo, 4 h.
A short description of data set [4]: Drug metabolism in mouse xenografted with human HCT-116 cells assessed as deiodination treated with radiolabeled compound at 0.37 MBq, iv measured after 240 mins by gamma-counting analysis. It is filed as ADME, organism-based. The settings on record: 4 h.
Data set [5] is described as follows: Drug uptake in HCT-116 cells bearing mouse assessed as ratio of radioactive accumulation in tumor to muscle treated with radiolabeled compound at 0.37 MBq, iv measured after 30 mins by gamma-counting analysis. The data set is classed as ADME, organism-based. The settings on record: in vivo, 0.5 h.
Data set [6] in a line: Drug uptake in Kunming mouse kidney assessed as radioactive accumulation treated with radiolabeled compound at 0.37 MBq, iv measured after 120 mins by gamma-counting analysis. The settings on record: in vivo, 2 h. It is filed as ADME, organism-based.
The nature of data set [7]: Drug uptake in HCT-116 cells bearing mouse assessed as ratio of radioactive accumulation in tumor to muscle treated with radiolabeled compound at 0.37 MBq, iv measured after 240 mins by gamma-counting analysis. The data set is classed as ADME, organism-based. The settings on record: in vivo, 4 h.
Data set [8] is described as follows: Drug uptake in intestine of mouse xenografted with human HCT-116 cells assessed as radioactive accumulation treated with radiolabeled compound at 0.37 MBq, iv measured after 240 mins by gamma-counting analysis. The data set is classed as ADME, organism-based. The settings on record: in vivo, 4 h.
Data set [9] can be described thus: Selectivity ratio of IC50 for Inhibition of human recombinant CYP1A1 to IC50 for Inhibition of human recombinant CYP1B1. It is filed as ADME. The settings on record: recombinant enzyme.
The nature of data set [10]: Drug uptake in Kunming mouse thyroid assessed as radioactive accumulation treated with radiolabeled compound at 0.37 MBq, iv measured after 120 mins by gamma-counting analysis. The data set is classed as ADME, organism-based, Thyroid gland. The settings on record: in vivo, 2 h.
Data set [11] can be described thus: Drug uptake in human HEK293T cells using radiolabeled compound at 0.037 MBq incubated for 120 mins by gamma-counting analysis. The settings on record: hek-293t, 2 h. It is filed as ADME, cell-based.
Data set [12] in a line: Drug uptake in Kunming mouse lungs assessed as radioactive accumulation treated with radiolabeled compound at 0.37 MBq, iv measured after 120 mins by gamma-counting analysis. The settings on record: in vivo, 2 h. The data set is classed as ADME, organism-based, Lung.
Data set [13] can be described thus: Drug uptake in kidney of mouse xenografted with human HCT-116 cells assessed as radioactive accumulation treated with radiolabeled compound at 0.37 MBq, iv measured after 240 mins by gamma-counting analysis. The data set is classed as ADME, organism-based. The settings on record: in vivo, 4 h.
A short description of data set [14]: n-Octanol/PBS partition coefficient, log D of the radiolabeled compound at 0.37 MBq at pH 7.4 by gamma-counting analysis. The data set is classed as physicochemical. The settings on record: octanol/water.
Data set [15] in a line: Drug uptake in human A549 cells using radiolabeled compound at 0.037 MBq incubated for 120 mins by gamma-counting analysis. It is filed as ADME, cell-based. The settings on record: a549, 2 h.
The nature of data set [16]: Drug uptake in Kunming mouse intestine assessed as radioactive accumulation treated with radiolabeled compound at 0.37 MBq, iv measured after 120 mins by gamma-counting analysis. The settings on record: in vivo, 2 h. The data set is classed as ADME, organism-based.
Data set [17] can be described thus: Selectivity ratio of IC50 for Inhibition of human recombinant CYP1A2 to IC50 for Inhibition of human recombinant CYP1B1. The data set is classed as ADME. The settings on record: recombinant enzyme.
A short description of data set [18]: Drug uptake in human HCT-116 cells using radiolabeled compound at 0.037 MBq incubated for 120 mins by gamma-counting analysis. It is filed as ADME, cell-based. The settings on record: hct-116, 2 h.
A further data set concerns the target T1, Cytochrome P450 1A2 (Homo sapiens, UniProt P05177).
T1 sequence (P05177 whole entry): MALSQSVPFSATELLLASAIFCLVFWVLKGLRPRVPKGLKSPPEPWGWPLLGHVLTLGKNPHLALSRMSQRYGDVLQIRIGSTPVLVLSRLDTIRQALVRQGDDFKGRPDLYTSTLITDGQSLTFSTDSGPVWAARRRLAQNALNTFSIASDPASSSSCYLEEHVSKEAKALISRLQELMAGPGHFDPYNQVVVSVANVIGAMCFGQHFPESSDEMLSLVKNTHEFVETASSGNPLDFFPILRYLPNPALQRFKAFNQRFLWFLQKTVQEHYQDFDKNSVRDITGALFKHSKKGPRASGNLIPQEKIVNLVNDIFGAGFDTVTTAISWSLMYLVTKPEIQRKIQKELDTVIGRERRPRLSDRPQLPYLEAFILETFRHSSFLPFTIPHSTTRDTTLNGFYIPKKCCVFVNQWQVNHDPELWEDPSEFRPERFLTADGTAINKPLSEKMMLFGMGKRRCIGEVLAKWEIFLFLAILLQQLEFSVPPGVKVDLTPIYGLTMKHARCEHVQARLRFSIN
As to the kind of experiment: Inhibition of human recombinant CYP1A2 using 7-ethoxyresorufin as substrate preincubated with enzyme for 5 mins followed by fluorescent substrate and NADPH addition and measured after 50 mins by EROD assay. The data set is classed as ADME.

The target in a further data set is T2, Cytochrome P450 1A1 (Homo sapiens, UniProt P04798).
T2 sequence (P04798 whole entry): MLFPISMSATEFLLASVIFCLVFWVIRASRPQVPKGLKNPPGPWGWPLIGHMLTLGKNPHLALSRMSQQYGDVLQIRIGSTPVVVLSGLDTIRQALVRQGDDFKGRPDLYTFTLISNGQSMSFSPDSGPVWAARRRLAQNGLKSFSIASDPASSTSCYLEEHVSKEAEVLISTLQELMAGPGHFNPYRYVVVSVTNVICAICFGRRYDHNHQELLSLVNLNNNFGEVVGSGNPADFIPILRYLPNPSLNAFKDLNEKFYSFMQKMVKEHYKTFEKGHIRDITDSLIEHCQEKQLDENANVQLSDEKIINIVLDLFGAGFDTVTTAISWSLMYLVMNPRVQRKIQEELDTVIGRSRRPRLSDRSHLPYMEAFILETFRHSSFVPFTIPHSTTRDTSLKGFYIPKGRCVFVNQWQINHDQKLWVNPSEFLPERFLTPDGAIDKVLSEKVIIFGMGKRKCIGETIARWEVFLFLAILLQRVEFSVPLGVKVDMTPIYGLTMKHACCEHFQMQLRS
As to the kind of experiment: Inhibition of human recombinant CYP1A1 using 7-ethoxyresorufin as substrate preincubated with enzyme for 5 mins followed by fluorescent substrate and NADPH addition and measured after 15 mins by EROD assay. It is filed as ADME.

SMILES strings stand for the structures.

As for `Nc1nc(-c2ccc(I)cc2)nc2ccccc12`, the Drug metabolism result in data set [1] and in [4] was “Metabolite_Notdetected” throughout. Further, the Drug uptake in [2] was 23.95%; in data set [3], “Active”; in [6], “Active”; in [8], “Active”; in data set [10], “Active”; in data set [11], “Active”. Also, the Drug uptake entry in data set [12], in data set [13], in data set [15], in data set [16] and in [18] was “Active” throughout. Moreover, the Ratio in data set [5] was 1.27; in [7], 1.84. The “Ratio IC50” value in data set [9] is given as 287; in [17], 6.23 10^4No_unit. Further, the logD in data set [14] was 3.24. The figures for the IC50 on Cytochrome P450 1A2 and on Cytochrome P450 1A1 were 1240 nM and 5.74 nM, respectively.
